Assays:
[1] = system: aus menschlichem Blut hergestellten Suspensionen roter Blutkörperchen
From the text: Dyn. 6, 408-414 [1983]) untersucht. Die Ergebnisse werden in Form der zu 50 %iger Hämolyse gehörenden Konzentrationen (EH₅₀) angegeben. […] Auch die hämolytische Wirkung einer der im Komplex gebundenen γ-CD-Menge entsprechenden Menge γ-Cyclodextrin wurde untersucht.

[2] = Blood level after subcutaneous administration (UV spectrum of serum); assay type: in vivo, CFY-Ratten; conditions: subcutan, 200 mg/kg
From the text: • a) Die Resorption von Nystatin aus per os verabreichtem Nystatin-γ-CD-Komplex Die Resorption des Wirkstoffes wurde an Mäusen, an einem durch intravenöse Applikation einer Suspension von Candida albicans hervorgerufenen Sepsismodell untersucht. Die Sepsis verursachte innerhalb von 2-3 Tagen 100 %ige Mortalität. Den Versuchstieren wurde per os gemäß Beispiel 3 hergestellte, 8 % Nystatin enthaltende Komplex verabreicht. In einem Parallelversuch wurde Nystatin intravenös appliziert. Für beide Gruppen wurde die auf die unbehandelte Kontrolle bezogene Verlängerung der Überlebensdauer ermittelt. [formula] Wenn man diejenigen in Form des Komplexes per os verabreichten Nystatindosen mit denjenigen i.v. applizierten Nystatindosen vergleicht, die eine etwa gleiche Verlängerung der Überlebensdauer bewirkten (Tabelle 9, letzte Spalte),so läßt sich errechnen, daß aus dem Komplex durchschnittlich 6,2 % des Wirkstoffes in die Blutbahn gelangten. Bei den höchsten Dosen (i.v. 1,56 mg/kg, p.o. 25 mg/kg) ist das Zurückfallen der Überlebensdauer bereits auf die schwache Toxizität des Nystatins zurückzuführen. • b) Die Resorption von Nystatin aus subcutan appliziertem Nystatin-γ-CD-Komplex Weibliche CFY-Ratten eines durchschnittlichen Gewichtes von 180 g wurden mit Nystatin, mit Nystatin-γ-CD-Komplex (Wirkstoffgehalt9 8 %) beziehungsweise mit γ-CD behandelt. […]

[3] = Dissolution of Nystatin complex and Nystatin base material in water at 37 °C; assay type: physicochemical; conditions: destilliertes Wasser, after the first 5 Minuten
Protocol: Der auf die beschriebene Weise hergestellte Komplex zeigte bei den thermoanalytischen Untersuchungen im Vergleich zum Gemisch die gleichen Abweichungen wie der gemäß Beispiel 3 durch Lyophilisieren hergestellte Komplex. Die Löslichkeit von einer der Wirkstoffmenge von 10 mg/ml entsprechenden Menge Nystatin-γ-CD-Komplex und von Nystatingrundmaterial wurde in 15 ml destilliertem Wasser bei 37 °C untersucht. Die Lösungen wurden mit dem Magnetrührer bei einer Drehzahl von 150 min⁻¹ gerührt. Zu unterschiedlichen Zeitpunkten wurden Proben genommen, filtriert und spektrophotometrisch auf ihren Wirkstoffgehalt untersucht. Die Ergebnisse sind in der Tabelle 6 zusammengestellt.
Das Spektrum der von der wäßrigen Suspension des Nystatingrundmaterials genommenen Proben war nicht auswertbar. […] Zuerst deformierte sich das Maximum um 290 nm und verschwand dann ganz, und im Bereich geringerer Wellenlänge zeigten sich neue Maxima, was auf Schädigung des konjugierten Chromophorsystems schließen läßt.

C[C@@H]1[C@H](O)[C@@H](C)/C=C/C=C/CC/C=C/C=C/C=C/C=C/C(O[C@H]2O[C@H](C)[C@@H](O)[C@H](N)[C@@H]2O)CC2O[C@](O)(CC(O)C(O)CCC(O)CC(O)CC(O)CC(=O)O[C@H]1C)CC(O)C2C(=O)O (stereo partly shown) [Nystatin]
Hämolyse ([1]; 70 µg/ml Nystatin): 70% | EH₅₀ (concentration for 50 % haemolysis) ([1]; complexes berechnet als Wirkstoff): 57 µg/mL | Blutspiegel [2]: nichts nachzuweisen | Zersetzung in aqueous suspension (UV spectrum) [3]: fortschreitende Zersetzung
